Results published in ChEMBL document CHEMBL4190400, “Identification of Potent Ebola Virus Entry Inhibitors with Suitable Properties for in Vivo Studies” (J Med Chem, 2018).
In brackets after ≈: the same amount, converted by molar mass.

Key:
[1] = Stability of the compound in mouse plasma at 10 uM assessed as compound remaining after 4 hrs by LC-MS/MS analysis; assay type: ADME, cell-free; settings: read-out: Stability
[2] = Half life in mouse liver microsomes at 1 uM after 60 mins in presence of NADPH by LC-MS/MS analysis; assay type: ADME, microsome
[3] = Half life in mouse liver microsomes at 1 uM after 60 mins in presence of NADPH and ritonavir by LC-MS/MS analysis; assay type: ADME, microsome; settings: with ritonavir (concentration not stated)
[4] = Half life in human liver microsomes at 1 uM after 60 mins in presence of NADPH by LC-MS/MS analysis; assay type: ADME, microsome
[5] = Tmax in mouse at 50 mg/kg, po administered via gavage cotreated with 50 mg/kg ritonavir; assay type: ADME, organism-based; settings: in vivo
[6] = Cmax in mouse at 50 mg/kg, po administered via gavage cotreated with 50 mg/kg ritonavir; assay type: ADME, organism-based; parameters: dose 50 mg/kg, route oral; settings: in vivo
[7] = Concentration in mouse plasma at 50 mg/kg, po administered via gavage cotreated with 50 mg/kg ritonavir; assay type: ADME, organism-based; settings: in vivo
[8] = AUClast in mouse at 50 mg/kg, po administered via gavage cotreated with 50 mg/kg ritonavir; assay type: ADME, organism-based; parameters: dose 50 mg/kg, route oral, time 0 - last; settings: in vivo
[9] = Half life in mouse at 50 mg/kg, po administered via gavage cotreated with 50 mg/kg ritonavir; assay type: ADME, organism-based; settings: in vivo
[10] = Clearance in mouse at 50 mg/kg, po administered via gavage cotreated with 50 mg/kg ritonavir; assay type: ADME, organism-based; settings: in vivo
Ebolavirus [11] = assay: Antiviral activity against VSV pseudotyped Ebolavirus expressing M-GFP infected in African green monkey Vero E6 cells assessed as inhibition of viral infection pre-incubated for 2 hrs before infection and measured after 8 to 12 hrs by fluorescence microscopic method; assay type: functional, Vero C1008
Ebolavirus [12] = assay: Antiviral activity against recombinant VSV pseudotyped Ebolavirus expressing M-GFP infected in African green monkey Vero E6 cells assessed as inhibition of viral infection pre-incubated for 2 hrs before infection and measured after 8 to 12 hrs in presence of 50% NHS by fluorescence microscopic method; assay type: functional, Vero C1008; settings: Orthoebolavirus, Vero C1008
physchem = settings: phosphate buffered saline, pH 7.4
in vitro = settings: mouse, plasma
Ebolavirus [13] = assay: Antiviral activity against Ebolavirus isolate Makona infected in human HeLa cells assessed as inhibition of viral infection pretreated for 2 hrs before viral infection and measured after 48 hrs by EboV GP immunostaining based method; assay type: functional, cell-based; settings: Orthoebolavirus

## [2H]C([2H])(c1cc(Cl)ccc1N)N1CCN(C(=O)CNC(=O)C2CC23CCC(F)(F)CC3)CC1 (single isomer, unassigned; (-))
[1]
  remaining at 4 h, 10 µM: 88%
[2]
  half-life at 1 µM: 3 min
[3]
  half-life at 1 µM: 91 min
[4]
  half-life at 1 µM: 16 min
[5]
  Tmax: 102 min
[6]
  Cmax: 19.5 µM
[7]
  concentration: 2 µM
[8]
  AUC(0-t): 121 µM·h
[9]
  half-life: 192 min
[10]
  CL/F: 15.5 mL/min/kg
Ebolavirus [11]; vero c1008
  IC50: 51 nM
Ebolavirus [12]
  IC50: 163 nM
physchem
  solubility kinetic: 78 µM (≈ 35.6 µg/mL)
In vitro
  fraction unbound at 6 h: 0.121

## COC(=O)c1ccc(/C=C/c2ccccc2CN2CCN(C(=O)CNC(=O)CC34CC5CC(CC(C5)C3)C4)CC2)cc1
Ebolavirus [11]; Orthoebolavirus, Vero C1008
  IC50: 1500 nM

## COC(=O)c1ccc(COc2ccc(F)cc2CN2CCN(C(=O)CNC(=O)CC3CCC(F)(F)CC3)CC2)cc1
Ebolavirus [11]; Orthoebolavirus, Vero C1008
  IC50: 18 nM

## COC(=O)c1ccc(COc2ccc(Cl)cc2CN2CCN(C(=O)CNC(=O)C(F)(F)C(F)F)CC2)cc1
Ebolavirus [11]; Orthoebolavirus, Vero C1008
  IC50: 160 nM

## COC(=O)c1ccc(Oc2cc(Cl)cc(CN3CCN(C(=O)CNC(=O)CC45CC6CC(CC(C6)C4)C5)CC3)c2)cc1
Ebolavirus [11]; Orthoebolavirus, Vero C1008
  IC50: 16 nM

## Nc1ccc(Cl)cc1CN1CCN(C(=O)CNC(=O)CC23CC4CC(CC(C4)C2)C3)CC1
Ebolavirus [11]; Orthoebolavirus, Vero C1008
  IC50: 90 nM

## O=C(CC12CC3CC(C1)CC(c1ccc(O)c([N+](=O)[O-])c1)(C3)C2)NCC(=O)N1CCN(Cc2ccccc2OCc2ccc(Br)cc2)CC1
Ebolavirus [11]; Orthoebolavirus, Vero C1008
  IC50: 600 nM

## N#Cc1ccc(Br)cc1CN1CCN(C(=O)CNC(=O)CC23CC4CC(CC(C4)C2)C3)CC1
Ebolavirus [11]; Orthoebolavirus, Vero C1008
  IC50: 310 nM

## COC(=O)c1ccc(COc2ccccc2CN2CCN(C(=O)CNC(=O)CC34CC5CC(C3)CC(C(=O)O)(C5)C4)CC2)cc1
Ebolavirus [11]; Orthoebolavirus, Vero C1008
  IC50: > 2000 nM

## CN(C)S(=O)(=O)c1ccc(COc2ccccc2CN2CCN(C(=O)CNC(=O)CC34CC5CC(CC(C5)C3)C4)CC2)cc1
Ebolavirus [11]; Orthoebolavirus, Vero C1008
  IC50: 400 nM

## CCC1(CC)CC1C(=O)NCC(=O)N1CCN(Cc2cc(Cl)ccc2N)CC1 (racemic)
Ebolavirus [11]; Orthoebolavirus, Vero C1008
  IC50: 160 nM

## O=C(CC12CC3CC(CC(C3)C1)C2)NCC(=O)N1CCN(Cc2cc(Br)ccc2Cl)CC1
Ebolavirus [11]; Orthoebolavirus, Vero C1008
  IC50: 2200 nM

## O=C(CC12CC3CC(CC(C3)C1)C2)NCC(=O)N1CCN(Cc2cc(Cl)c(F)cc2F)CC1
Ebolavirus [11]; Orthoebolavirus, Vero C1008
  IC50: 370 nM

## O=C(CC12CC3CC(CC(C3)C1)C2)NCC(=O)N1CCN(Cc2cc(Cl)ccc2F)CC1
Ebolavirus [11]; Orthoebolavirus, Vero C1008
  IC50: 360 nM

## O=C(CC1CCC(F)(F)CC1)NCC(=O)N1CCN(Cc2cc(Cl)ccc2NC(=O)C2CC2)CC1
Ebolavirus [11]; Orthoebolavirus, Vero C1008
  IC50: 3500 nM

## O=C(CC12CC3CC(CC(Cl)(C3)C1)C2)NCC(=O)N1CCN(Cc2ccccc2OCc2ccc(Br)cc2)CC1
Ebolavirus [11]; Orthoebolavirus, Vero C1008
  IC50: 500 nM

## O=C(CC1CCC(F)(F)CC1)NCC(=O)N1CCN(Cc2cc(Cl)ccc2NS(=O)(=O)C2CC2)CC1
Ebolavirus [11]; Orthoebolavirus, Vero C1008
  IC50: 2200 nM

## Nc1ccc(Cl)cc1C(=O)N1CCN(C(=O)CNC(=O)C2CC23CCC(F)(F)CC3)CC1 (racemic)
Ebolavirus [11]; Orthoebolavirus, Vero C1008
  IC50: > 5000 nM

## COC(=O)c1ccc(COc2ccc(Cl)cc2CN2CCN(C(=O)CNC(=O)CC34CC5CC(CC(C5)C3)C4)CC2)cc1
Ebolavirus [11]; Orthoebolavirus, Vero C1008
  IC50: 1.1 nM

## Nc1ccc(Cl)cc1CN1CCN(C(=O)CNC(=O)C2CC23CCCC3)CC1 (racemic)
Ebolavirus [11]; Orthoebolavirus, Vero C1008
  IC50: 240 nM

## Nc1ccc(Br)cc1CN1CCN(C(=O)CNC(=O)CC2CCC(F)(F)CC2)CC1
Ebolavirus [11]; Orthoebolavirus, Vero C1008
  IC50: 1740 nM

## O=C(CC12CC3CC(CC(C3)C1)C2)NCC(=O)N1CCN(Cc2cc(Cl)ccc2C(F)(F)F)CC1
Ebolavirus [11]; Orthoebolavirus, Vero C1008
  IC50: > 2000 nM

## NC(=O)c1ccc(COc2ccccc2CN2CCN(C(=O)CNC(=O)CC34CC5CC(CC(C5)C3)C4)CC2)cc1
Ebolavirus [11]; Orthoebolavirus, Vero C1008
  IC50: 700 nM

## COC(=O)c1ccc(CCc2ccccc2CN2CCN(C(=O)CNC(=O)CC34CC5CC(CC(C5)C3)C4)CC2)cc1
Ebolavirus [11]; Orthoebolavirus, Vero C1008
  IC50: 20 nM

## COC(=O)c1ccc(COc2ccc(Br)cc2CN2CCN(C(=O)CNC(=O)CC34CC5CC(CC(C5)C3)C4)CC2)cc1
Ebolavirus [11]; Orthoebolavirus, Vero C1008
  IC50: 9 nM

## O=C(CC1CCC(F)(F)CC1)NCC(=O)N1CCN(Cc2cc(Cl)cc(Cl)c2O)CC1
Ebolavirus [11]; Orthoebolavirus, Vero C1008
  IC50: 3600 nM

## O=C(CC12CC3CC(CC(C3)C1)C2)NCC(=O)N1CCN(Cc2cc(Cl)cc(F)c2F)CC1
Ebolavirus [11]; Orthoebolavirus, Vero C1008
  IC50: 670 nM

## COC(=O)c1ccc(COc2ccccc2CN2CCN(C(=O)CNC(=O)CC34CC5CC(CC(C5)C3)C4)CC2)cc1
[2]
  half-life at 1 µM: 1 min
[4]
  half-life at 1 µM: 1.2 min
Ebolavirus [11]; Orthoebolavirus, Vero C1008
  IC50: 13 nM
Ebolavirus [12]
  IC50: 64 nM
Ebolavirus [13]
  EC50: 160 nM
physchem
  solubility kinetic: 5.3 µM (≈ 3.04 µg/mL)

## Nc1ccc(C2CC2)cc1CN1CCN(C(=O)CNC(=O)C2CC23CCC(F)(F)CC3)CC1 (racemic)
Ebolavirus [11]; Orthoebolavirus, Vero C1008
  IC50: 4200 nM

## O=C(CC12CC3CC(CC(C3)C1)C2)NCC(=O)N1CCN(Cc2cc(Cl)ccc2O)CC1
Ebolavirus [11]; Orthoebolavirus, Vero C1008
  IC50: 200 nM

## COC(=O)c1ccc(COc2ccccc2CN2CCN(C(=O)CNC(=O)CC3(C)CCCCC3)CC2)cc1
Ebolavirus [11]; Orthoebolavirus, Vero C1008
  IC50: 80 nM

## NS(=O)(=O)c1ccc(COc2ccccc2CN2CCN(C(=O)CNC(=O)CC34CC5CC(CC(C5)C3)C4)CC2)cc1
Ebolavirus [11]; Orthoebolavirus, Vero C1008
  IC50: 350 nM

## CS(=O)(=O)c1ccc(COc2ccc(Cl)cc2CN2CCN(C(=O)CNC(=O)CC3CCC(F)(F)CC3)CC2)cc1
[1]
  remaining at 4 h, 10 µM: 30%
[3]
  half-life at 1 µM: > 120 min
Ebolavirus [12]
  IC50: 38 nM
